We go through 1 molecule from patent US20220288156A1, “TREATMENT” (QUEEN MARY UNIVERSITY OF LONDON, priority 2019, published 2022).

Experiment [1] concerns Myh7. Put plainly: Myh7 transcript expression by RT-qPCR, whole heart preparations. It counts as in vivo, mouse. The following applies: FIG. 10: whole heart, AAC surgery, ldCil 3 weeks after surgery, normalised to Gapdh. An excerpt:
Male C57BL6 mice (Charles River) underwent AAC surgery at 4-5 weeks of age (between 20 and 22 g). Mice were anaesthetised with isoflurane, placed in a supine position on the procedure table, and an incision made along the ventral underbelly, extending from the xiphoid process of the sternum, down to the groin to reveal the abdominal muscle. The abdominal muscle was then cut the same distance along the linea alba to allow easy reattachment of the two halves. The two sides of the abdominal muscles were clipped back to reveal the abdominal gastrointestinal organs, and these were carefully manoeuvred to expose the underlying abdominal aorta. The aorta was cleaned of visceral fats, and carefully separated from parallel vasculature, whilst avoiding any spinal nerves. […] Hearts were halved longitudinally and either snap frozen in liquid nitrogen (for immunohistochemistry) or stored in an RNA later stabilisation solution (for RT-quantitative PCR) (ThermoFisher Scientific, Hertfordshire, UK). […]
Complementary DNA (cDNA) synthesis was carried out using the Applied Biosystems High Capacity cDNA Reverse Transcription (RT) Kit on a thermal cycler as per the manufacturer's instructions. cDNA was made up to a total quantity of either 600 (most mouse tissue and/or cells), or 1000 ng (human heart tissue). […]
In general terms: Quantitative PCR measures a nucleic acid by following its amplification.

For experiment [2], the system named is AAC model of heart failure. Put plainly: Cardiac blood vessel density (CD31 immunostaining) in AAC model. The format is in vivo, mouse. The following applies: ldCil for 3 weeks. The source says: (§1) Male C57BL6 mice (Charles River) underwent AAC surgery at 4-5 weeks of age (between 20 and 22 g). Mice were anaesthetised with isoflurane, placed in a supine position on the procedure table, and an incision made along the ventral underbelly, extending from the xiphoid process of the sternum, down to the groin to reveal the abdominal muscle. The abdominal muscle was then cut the same distance along the linea alba to allow easy reattachment of the two halves. The two sides of the abdominal muscles were clipped back to reveal the abdominal gastrointestinal organs, and these were carefully manoeuvred to expose the underlying abdominal aorta. […] Hearts were halved longitudinally and either snap frozen in liquid nitrogen (for immunohistochemistry) or stored in an RNA later stabilisation solution (for RT-quantitative PCR) (ThermoFisher Scientific, Hertfordshire, UK).
For anti-CD31 (BD Bioscience) detection, 5 μm snap-frozen sections were blocked in 5% normal goat serum in PBS for 1 h, followed by incubation with anti-CD31 primary antibody (clone H-3, sc-376764, Santa Cruz, 1:100) in blocking buffer (5% normal goat serum in PBS) for 2 h at room temperature. […] To quantify cardiac blood vessel density, the number of CD31-positive blood vessels present across an entire area of abdominally-orientated cardiac tissue was counted within a field of view taken at 40× magnification. […]

For experiment [3], the system named is pathological angiogenesis. The following applies: cited from earlier work.
The subject of experiment [4] is AngII-stressed mouse cardiomyocytes. The experiment is described as follows: Western blot of TCA cycle enzymes in AngII-stressed cardiomyocytes. The note with it: Western blot densitometry. It counts as cell-based. Here is the method:
Following 5 days culture at 37° C., 5% CO2, primary mouse cardiomyocytes were serum starved for 24 h in a 0.5 FBS-DMEM media. On day 6 cells were washed and refed with complete cardiomyocyte growth medium plus or minus 1 μM angiotensin II (Alfa Aesar), and this was repeated on day 7. In tandem to angiotensin II treatment, cells were either treated with vehicle or low dose Cilengitide (20 nM) (Bachem). On 8-day cardiomyocytes were lysed for RNA analysis.
Cardiomyocytes were prepared and treated as above. At the end of the experiment, cells were lysed with RIPA buffer for 10 min on ice and the cell debris pelleted by centrifugation of the lysate at 9300 g for 10 min at 4° C. Protein concentration was determined from the cell supernatant and 20 μg protein loaded onto 10% gels. Membranes were probed for succinate dehydrogenase (Abcam, ab178423), pyruvate dehydrogenase (Abcam, ab131263), aconitase (Abcam, ab129069) and GAPDH (Millipore, AB2302). Densitometric readings of band intensities were obtained using the JmageJ™ software.
On the technique in general: In western blotting, separated proteins are transferred to a membrane and probed.

Experiment [5] concerns AAC model of heart failure. The experiment is described as follows: Cardiac hypertrophy in AAC model (WGA cardiomyocyte perimeter, heart:body weight). It counts as in vivo, mouse. The note with it: intervention mode, AAC surgery.
Source text: as §1
5 μm snap-frozen sections were fixed in 10% acetone, washed in phosphate buffered saline, PBS, blocked in 5% normal goat serum/PBS for 1 h at room temperature and incubated with WGA directly conjugated to Alexa Fluor 488 (Invitrogen) (1:100) in blocking buffer (5% normal goat serum/PBS) for 2 h at room temperature. […] Images were taken with a Zeiss Axioplan microscope, and the cardiomyocyte size was analysed with ImageJ™ software. 100-200 cells per heart were measured to determine cardiomyocyte size.

The mark [6] stands for this setting: low doses, 50 μg/kg in vivo or 2 nM in vitro.

Turning to `CC(C)[C@H]1C(=O)N[C@@H](CCCN=C(N)N)C(=O)NCC(=O)N[C@@H](CC(=O)O)C(=O)N[C@H](Cc2ccccc2)C(=O)N1C` [Cilengitide, c(f*VRGD)], the Myh7 levels result in experiment [1] is recorded as “restored Myh7 levels back to untreated levels”. Also, the “cardiac blood vessel density” value in experiment [2] (AAC surgery) is listed as “significantly enhanced”. The “cardiac blood vessel density” value in experiment [2] (SHAM surgery) is listed as “no significant effect”. The “chemotherapy efficacy in cancer models in vivo” value in experiment [3] (ldCil with chemotherapy) is given as “improve chemotherapy efficacy”. Further, in experiment [3] (setting [6]), the “effect on quiescent vasculature” value is “no apparent effects” and the pathological angiogenesis result was “enhance pathological angiogenesis”. In addition, the “pyruvate dehydrogenase protein expression” value in experiment [4] is given as “rescues the elevated expression”. The “heart:body weight ratio” value in experiment [5] is reported as “blunted increases”. For the same molecule, the “cardiomyocyte perimeter (WGA stained sections)” value in experiment [5] (compared with vehicle) is “reduced”.
